# Where “and” joins values, the source holds several entries; their conditions need not be identical. Equal values may be shown once. Where a name gives a salt, the structure may show the parent alone. Read-outs that look alike come from different tables or passages of the source.
# Experiments:
# Type in all cases: cell-based
# NMDA receptor = experiment: Whole cell patch clamp, NMDA-induced current in cultured chick spinal cord neurons; conditions: for mean NMDA induced current: control cultures 121±16 pA
# Experimental: Cultures of dissociated spinal cord neurons were prepared as previously described (Farb, D. H., et al., J. Cell Biol., 80:651-661 (1979)). Briefly, the dissociated cells from 7-day chick embryos were plated on collagen-coated 35-mm tissue culture dishes in Eagle's minimum essential medium supplemented with 2.4 mM glutamine, 10% (v/v) heat-inactivated horse serum, 5% (v/v) chick embryo extract and antibiotics. Cultures were maintained in a humidified atmosphere of 5% CO2, 95% air at 37°. Cytarabine (1 μM) was added to the culture medium after 36 hr. of the initial plating to inhibit the proliferation of non-neuronal cells. One day later, this medium was replaced with a similar medium supplemented with 20.5 mM glucose, 19 mM KCl, and 2.5% chick embryo extract. Fresh medium was added twice weekly. Cultured neurons were used in experiments within 2-4 weeks after plating.
# Experiments were carried out in 35-mm tissue culture dishes on the stage of an inverted phase contrast microscope. Whole cell currents were recorded by the whole cell variant of the patch clamp technique (Hamill, O. P., et al., Pfagers Arch. 891:85-100 (1981)). Patch electrodes had tip openings of about […] and resistances of 3-8 M.OMEGA. using an intracellular solution comprised of the following (in mM): 140 CsCl, 11 EGTA, and 10 HEPES (pH adjusted to 7.2 with CsOH). In experiments in which a high concentration of glycine was used, the intracellular solution was replaced with a low chloride (10 mM) pipette solution. This solution contained the following (in mM): 140 potassium gluconate, 10 KCl, 8 sodium gluconate, 11 EGTA, and 10 HEPES (pH adjusted to 7.2 with KOH). To prevent a marked run-down of NMDA-induced current at high NMDA concentrations, 4 mM potassium ATP was included in the intracellular solution. The bath solution contained the following (in mM): 150 NaCl, 4 KCl, 1 CaCl2, and 10 HEPES (pH adjusted to 7.2 with NaOH). No glycine was added to the solutions containing NMDA, because no additional glycine was required to obtain a robust NMDA response, and there was no effect of a maximal concentration (10 μM) of glycine on 5β3αS inhibition of the NMDA response. All experiments were performed at room temperature (23-25° C.).
# Recordings were made using an Axopatch 1B patch clamp apparatus (Axon Instruments, Burlingame, Calif.). Cells with series resistances greater than 10 M.OMEGA. were rejected. After partial compensation, series resistances were between 3.5 and 6 M.OMEGA.. The holding potential was maintained at -70 mV unless otherwise noted. Currents were filtered at 1 kHz using an eight-pole Bessel filter (-3 dB) and digitized ([…]) using an on-line data acquisition system (pClamp, Axon Instruments).
# Drug solutions were applied to single neurons by pressure ejection (15 psi) from seven-barrel pipettes. Seven-barrel pressure pipettes were positioned approximately […] from the neuronal soma. Under these conditions, the drug solution in the pressure pipette rapidly and effectively replaces the solution surrounding the target neurons with less than 10% dilution (Choi, D. W., et al., Nature (Lond.) 269:342-344 (1977); Chan, C. Y., et al., Life Sci., 83:2061-2069 (1983); Chan, C. Y. and Farb, D. H., J. Neurosci., 5:2365-2373 (1985)). All drugs were obtained from Sigma, with the except of AMPA hydrobromide (Research Biochemicals) and steroids (Steraloids). Stock solutions of steroids were prepared in dimethyl sulfoxide, the final concentration of which was 0.5% (v/v). To obviate the possible effects of dimethyl sulfoxide on the relevant agonist-induced currents, all other drug solutions including NMDA, kainate, AMPA and external buffer (in the pressure pipette) also contained 0.5% dimethyl sulfoxide. […]
# [1] = tested on: glutamate receptor-mediated spontaneous EPSCs in rat hippocampal neurons; experiment: Spontaneous excitatory postsynaptic currents (EPSCs), whole-cell recording in cultured hippocampal neurons
# Experimental: Primary cultures of hippocampal neurons were prepared from embryonic day 18 rats. Cultured neurons were used in experiments 2-3 weeks after plating.
# Spontaneous excitatory postsynaptic currents were recorded by the whole-cell variant of the patch clamp technique. The pipet solution usually contained (in mM) KCl 10, EGTA 11, sodium gluconate 3, potassium gluconate 140 and HEPES 10, adjusted to pH 7.2 with KOH. The bath solution contained (in mM) NaCl 150, KCl 4, CaCl2 1, and HEPES 10, adjusted to pH 7.2 with NaOH. Because NMDA-induced currents are subject to voltage-dependent block by extracellular Mg^2+, no magnesium salts were added to the bath solution. All records were made with the cell membrane potential clamped at -70 mV, which is very close to the Cl- equilibrium potential. Therefore, IPSCs are not expected to be observed and spontaneous activity should consist of EPSCs. The complete blockage of spontaneous activity by the co-application of the NMDA receptor antagonist APV and the non-NMDA receptor antagonist DNQX argues that the observed spontaneous activity is glutamate receptor-mediated.
# Drug solutions were applied to single neurons by pressure ejection (15 psi) from 7-barrel pipets (tip opening ~3-5 μm) positioned ~50 μm from the neuronal soma. In all experiments, neurons received a 40s application of either steroid or steroid plus antagonist(s), followed by 10-20s pulse of external buffer solution.
# [2] = tested on: NMDA-induced cell death in primary neuronal cultures of rat hippocampal formation; experiment: Trypan blue exclusion, NMDA-induced cell death (excitotoxicity) in primary hippocampal cultures; conditions: Rattus norvegicus, 200 μM 17β-estradiol hemisuccinate
# Description: Trypan blue exclusion was used to evaluate the ability of derivatives of pregnenolone sulfate to inhibit NMDA-induced cell death in primary neuronal cultures of rat hippocampal formation.
# Mixed neuronal and glial cultures of hippocampal tissue were derived from fetal rats on day 18 of embryonic development and were maintained in culture for 16 to 24 days (Brewer, G. J., Brain Res., 494: 65-74 (1989)). Care for the animals used in this study was in accordance with institutional guidelines. Hippocampal tissue from Sprague-Dawley rat pups was collected immediately following removal from dams sacrificed with CO2 on embryonic day 18. Cells were dissociated by trituration in Ca^2 +/Mg^2 + free Hank's basic salt solution supplemented with 4.2 mM bicarbonate, 1 mM sodium pyruvate, 20 mM HEPES, 3 mg/ml BSA, and pelleted by centrifugation (900 rpm, 3 min). The resulting pellet was suspended in DMEM supplemented with 2.4 mg/ml BSA, 26.5 mM sodium bicarbonate, 1 mM sodium pyruvate, 20 mM HEPES, 10% FBS, 100 units/ml penicillin, 100 μg/ml streptomycin, and a modification of Brewers B16 defined components (with […] vitamin B12 and without catalase, glutathione, and superoxide dismutase) (Pike, C. J., et al., Neurosci. 13:1676-87 (1993)) and plated onto poly-L-lysine coated 24 well culture dishes (Nunclon) at a density of 15,000 cells/cm^2 and were maintained in a humidified incubator in 5% CO2 /95% air at 37° C. After 5 days in vitro, nonneuronal cell division was inhibited by exposure to 2×10^-6 M cytosine arabinoside for 48 hrs. Cells were subsequently maintained in medium identical to that used for platting without BSA or FBS.
# The number of living neurons was determined by assessing the ability of cells to exclude trypan blue 16 hrs. after the addition of drug solutions to the medium of individual culture wells (Dawson, V. L., et al., Proc. Natl. Acad. Sci. USA, 88:6368-6371 (1991)). Drugs were introduced to cultures in 100 μl of conditioned media, collected from experimental cultures just prior to treatment, to a final volume of 0.5 ml. NMDA was dissolved in DMEM at concentrations of 0-5 mM so that addition of 10 μl yielded final concentrations of 0-100 μM. MK-801, a positive control, was dissolved in DMEM at a concentration of 1 mM so that addition of 5 μl yielded a final concentration of 10 μM. Control cultures were exposed only to an equivalent volume of DMEM, and concentration of DMSO (0.5%). The concentrations of the pregnenolone sulfate derivatives were as follows: 10-100 μM 5β3αS, 100 μM 5β3α hemisuccinate and 200 μM 17β-estradiol hemisuccinate.
# After exposure to drugs, the medium was replaced by 0.1 M sodium phosphate buffer/0.4% trypan blue. Cell death was assessed by counting the number of trypan blue positive and negative neurons in five high power fields per culture well with an inverted phase contrast microscope using both bright field and phase settings. Cell death is expressed as the ratio of the number of trypan blue positive to total number of cells counted in each well×100 (percent cell death).
# [3] = biological target: T1, recombinant NMDA receptors (NR1100 and NR2A subunits) (Rattus norvegicus, UniProt P35439+Q00959); experiment: Two electrode voltage-clamp of Xenopus oocytes expressing recombinant NMDA receptors
# T1 construct: expressed in transfected cells; host or cells: Xenopus laevis oocytes injected with in vitro transcribed mRNA
# Experimental: RNA preparation. mRNA were prepared through in vitro transcription of NR1100 and NR2A cDNAs using the mMessage mMachine kit (Ambion, Tex.). NR1100 and NR2A clones were kindly provided by Dr. Zukin and Dr. Nakanishie.
# Xenopus expression system. Female, oocyte positive Xenopus laevis frogs were purchased from Nasco, Inc. (WI). The frogs were kept on a 12/12 light-dark cycle and maintained on a diet of chopped calf liver every 3 days. Prior to surgery, frogs were anesthetized in a 0.15% Tricaine solution (Sigma, Mo.) for 30-45 minutes. Ovarian sections containing the follicular oocytes were removed through a lateral abdominal incision and were immediately placed in calcium-free ND96 solution (in mM):96 NaCl; 1 MgCl2; 2 KCl; 5 Hepes; 2.5 pyruvate (pH adjusted to 7.4 with NaOH). Following a 2 hr. incubation in 0.2% collagenase type II (Sigma, Mo.) at room temperature, individual defolliculated oocytes were transferred into 60×15 mm glass petri dishes containing ND96 solution (in mM): 96 NaCl; 1 MgCl2; 2 KCl; 1.8 CaCl2; 5 Hepes; 2.5 pyruvate (pH adjusted to 7.4 with NaOH). The isolated oocytes were maintained in an incubator at 18° C. On the following date, batches of 20-40 selected oocytes (Dumont stage V and VI) were injected with 50 nl of prepared RNA solution (0.5 ng of NR1 and 12 ng of NR2A mRNAs per oocyte) using an electronic microinjector (Drummond, Pa.). The injected oocytes were used for electrophysiological experiments following 4-10 day incubation at 18° C.
# Electrical recording and drug application. The ion current recordings were obtained in two electrodes voltage-clamp mode using an Axoclamp-2A amplifier (Axon Instruments, Inc., CA). The microelectrodes were fabricated with a programmed puller (Sutter Instrument Co., CA) from glass capillaries (Dagan, Minn.) and filled with 3M KCl solution. The resistance of filled microelectrodes was in the range of 2.5-3.5 M.OMEGA.. The oocytes were clamped at a holding potential of -70 mV. The membrane current was filtered at 500 Hz and sampled at 100 Hz frequency. The drugs were applied using a gravity driven external perfusion system. The data acquisition and external perfusion control were done using SuperScopeII software package (GW Instruments, MA). All experiments were performed at room temperature of 22-24° C.
# The degree of modulation of the amino acid response by steroids, the percent change, was defined at (I'/I-1)×100%, where I and I' are respectively the agonist-induced currents in the absence and presence of steroid. Throughout, results are expressed as mean±SEM; statistical comparison of groups was carried out using Student's t test.
# T1 sequence (Q00959 23-1464, other chains not shown): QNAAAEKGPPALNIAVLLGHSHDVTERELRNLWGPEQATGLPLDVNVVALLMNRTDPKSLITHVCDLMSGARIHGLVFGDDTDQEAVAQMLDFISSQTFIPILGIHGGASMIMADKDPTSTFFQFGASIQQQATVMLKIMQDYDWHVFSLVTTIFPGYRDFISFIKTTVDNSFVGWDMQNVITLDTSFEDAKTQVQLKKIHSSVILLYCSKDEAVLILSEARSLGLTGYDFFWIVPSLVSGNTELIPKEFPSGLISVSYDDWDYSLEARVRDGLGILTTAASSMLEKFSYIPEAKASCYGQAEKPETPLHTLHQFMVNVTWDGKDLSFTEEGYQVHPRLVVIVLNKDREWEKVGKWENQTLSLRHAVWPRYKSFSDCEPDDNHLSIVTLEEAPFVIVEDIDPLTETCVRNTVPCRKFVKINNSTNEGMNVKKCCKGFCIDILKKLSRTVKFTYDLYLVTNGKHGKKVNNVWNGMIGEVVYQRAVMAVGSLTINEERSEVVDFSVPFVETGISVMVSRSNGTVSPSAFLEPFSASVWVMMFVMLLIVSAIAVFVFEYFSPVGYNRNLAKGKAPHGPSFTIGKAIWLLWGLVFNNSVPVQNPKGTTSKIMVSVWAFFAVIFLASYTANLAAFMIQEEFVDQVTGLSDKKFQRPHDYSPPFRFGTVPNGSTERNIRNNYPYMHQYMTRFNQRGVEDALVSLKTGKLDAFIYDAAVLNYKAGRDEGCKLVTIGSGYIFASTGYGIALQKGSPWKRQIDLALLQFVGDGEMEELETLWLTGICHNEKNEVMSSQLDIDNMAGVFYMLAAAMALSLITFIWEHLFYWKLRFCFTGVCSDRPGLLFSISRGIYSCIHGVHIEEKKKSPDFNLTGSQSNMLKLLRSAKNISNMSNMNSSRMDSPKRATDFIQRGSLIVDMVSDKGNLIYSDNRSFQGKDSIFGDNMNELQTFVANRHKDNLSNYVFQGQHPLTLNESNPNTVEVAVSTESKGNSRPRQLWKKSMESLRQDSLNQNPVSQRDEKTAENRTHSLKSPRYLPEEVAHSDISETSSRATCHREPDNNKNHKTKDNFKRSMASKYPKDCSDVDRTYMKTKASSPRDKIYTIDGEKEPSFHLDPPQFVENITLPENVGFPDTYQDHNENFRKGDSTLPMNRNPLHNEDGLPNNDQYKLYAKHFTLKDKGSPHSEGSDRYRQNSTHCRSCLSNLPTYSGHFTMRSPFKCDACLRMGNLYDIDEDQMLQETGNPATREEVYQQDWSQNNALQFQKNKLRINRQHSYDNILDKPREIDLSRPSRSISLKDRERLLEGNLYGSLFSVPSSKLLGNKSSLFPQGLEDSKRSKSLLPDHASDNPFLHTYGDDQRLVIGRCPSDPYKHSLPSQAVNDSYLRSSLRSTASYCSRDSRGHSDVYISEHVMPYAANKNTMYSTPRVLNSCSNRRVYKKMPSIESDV
structure (smiles),measurement,setting,value
"O[C@H](CS)[C@H](O)CS (racemic) [DTT, dithiothreitol, reference compound]","NMDA current, % of control","NMDA receptor; 4 mM DTT, after 180 seconds of exposure",273±19%
same,mean NMDA induced current,NMDA receptor; after approximately an hour of exposure to 4 mM DTT,326±82 pA
"CC(=O)[C@H]1CC[C@H]2[C@@H]3CC[C@H]4C[C@@H](OS(=O)(=O)O)CC[C@]4(C)[C@H]3CC[C@]12C [5α3βS, 5α-pregnan-3β-ol-20-one sulfate, reference compound]",inhibition of the NMDA-induced current,NMDA receptor; steroid concentration not given,1±2.6%
CC(=O)[C@H]1CC[C@H]2[C@@H]3CC=C4C[C@@H](OS(=O)(=O)O)CC[C@]4(C)[C@H]3C(=O)C[C@]12C [11-keto PS],activation at 100 µM,"[1]; Rattus norvegicus, Hippocampal neuron, 100 μM steroid, read-out: percentage potentiation of EPSCs",19 ± 15%
same,effect on spontaneous EPSCs,[1]; cultures of rat hippocampal neurons,has no effect on EPSCs
C[C@]12CC[C@@H]3c4ccc(OC(=O)CCC(=O)O)cc4CC[C@H]3[C@@H]1CC[C@@H]2O [17β-estradiol hemisuccinate],inhibition at 200 µM,[2]; read-out: inhibition of the cell death induced by chronic NMDA,40%
same,inhibition at 200 µM,[2]; read-out: inhibition of the cell death produced by short term exposure to NMDA,65%
"C[C@]12CC[C@H](OS(=O)(=O)O)CC1=CC[C@@H]1[C@@H]2CC[C@]2(C)C(=O)CC[C@@H]12 [DHEAS, Dehydroepiandrosterone sulfate, reference compound]",potentiation of the NMDA response,NMDA receptor; concentration not in the sentence (100 μM in Table 1),28.8±8.8% and 28.8%
"CCN1C(=O)C=CC1=O [NEM, N-ethylmaleimide, reference compound]",mean NMDA induced current,"NMDA receptor; 5 min 4 mM DTT, then 2 min 4 mM DTT plus 300 μM NEM",367±82 pA
"CN[C@H](CC(=O)O)C(=O)O [NMDA, N-methyl-D-aspartate]",NMDA nH,NMDA receptor; in the absence of 5β3αS,1.01
same,NMDA Imax,"NMDA receptor; in the absence of 5β3αS, normalized to the peak current induced by 100 μM NMDA",2.56
same,EC50,"NMDA receptor; read-out: NMDA EC50, in the absence of 5β3αS",156 µM
same,EC50,[3],62 ± 4 µM
"CCCCC/C=C\C/C=C\C/C=C\C/C=C\CCCC(=O)O [arachidonic acid, reference compound]",potentiation of the 30 μM NMDA response,NMDA receptor; 10 μM arachidonic acid alone,120±35%
same,potentiation of the NMDA response,NMDA receptor; 10 μM arachidonic acid in the presence of 100 μM PS,158±22%
"NCCCNCCCCNCCCN [spermine, reference compound]",potentiation of the NMDA induced current,NMDA receptor; 100 μM spermine (maximal),136±33%
same,potentiation of the NMDA induced current,NMDA receptor; 250 μM spermine,67±21%

# From US6083941A, “Inhibition of NMDA receptor activity by pregnenolone sulfate derivatives” (Trustees of Boston University, priority 1998, dated 2000)
